Structures are written as SMILES. Counter-ions that a name gives are not always drawn. Like-named read-outs stand apart in the source and are kept apart here.

Series [1] has as its target type II dehydroquinase from Streptomyces coelicolor (Streptomyces coelicolor, UniProt P15474). Kind of series: Inhibition of type II dehydroquinase from Streptomyces coelicolor (Ki). It counts as biochemical. On the procedure:
(§1) Effect of compounds of formula I of the invention on the catalytic activity of the type II dehydroquinase from various sources. The inhibitory potency of compounds I of the invention against type II dehydroquinases from Mycobacterium tuberculoris, Streptomyces coelicolor and Helicobacter pylori were assayed as it is described in the following articles: 1) Sanchez-Sixto, C.; Prazeres, V. F. V.; Castedo, L.; Lamb, H.; Hawkins, A. R.; Gonzalez-Bello, C. J. Med. Chem. 2005, 48, 4871; 2) Prazeres, V. F. V.; Sanchez-Sixto, C.; Castedo, L.; Lamb, H.; Hawkins, A. R.; Riboldi-Tunnicliffe; Coggins, J. R.; Lapthorn, A. J.; González-Bello, C. Chem Med Chem 2007, 2, 194; and 3) Sanchez-Sixto, C.; Prazeres, V. F. V.; Castedo, L.; S. W. Suh, Lamb, H.; Hawkins, A. R.; Canada, F. J.; Jiménez-Barbero, J.; González-Bello, C. Chem Med Chem 2008, 3, 756.

For series [2], the target named is T1, type II dehydroquinase from Mycobacterium tuberculosis (Mycobacterium tuberculosis, UniProt P9WPX7). Briefly: biochemical. The note with it: pH = 7.0, 25° C., 50 mM Tris•HOAc. On the procedure:
as §1

Series [3] has as its target T2, type II dehydroquinase from Helicobacter pylori (Helicobacter pylori, UniProt Q48255).
T2 sequence (Q48255 1-167): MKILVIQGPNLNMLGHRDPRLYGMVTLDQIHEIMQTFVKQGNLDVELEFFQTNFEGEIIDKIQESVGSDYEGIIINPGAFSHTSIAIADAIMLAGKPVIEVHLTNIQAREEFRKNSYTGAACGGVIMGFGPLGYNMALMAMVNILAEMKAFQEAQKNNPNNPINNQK
Kind of series: Inhibition of type II dehydroquinase from Helicobacter pylori (Ki). It counts as biochemical. The note with it: pH = 7.0, 25° C., 50 mM Tris•HCl. As for the experimental part: as §1

Series [4] addresses T1, type II dehydroquinase from Mycobacterium tuberculosis. The note with it: read-out: Km of natural substrate, M. tuberculosis; cited from earlier work.
Series [5] addresses T2, type II dehydroquinase from Helicobacter pylori. The note with it: read-out: Km of natural substrate, H. pylori; cited from earlier work.
Setting [6] is: Inhibition constants Ki, S. coelicolor, pH = 7.0, 25° C., 50 mM Tris•HCl.
Setting [7] is: Inhibition constants Ki, M. tuberculosis.
Setting [8] is: read-out: Inhibition constants Ki, H. pylori.
[9] abbreviates: read-out: Inhibition constants Ki, M. tuberculosis.
Where [10] appears, read: pH = 7.0, 25° C., 50 mM Tris•HCl, read-out: Inhibition constants Ki, S. coelicolor.
Where [11] appears, read: Inhibition constants Ki, H. pylori.

T1 sequence (P9WPX7 whole entry): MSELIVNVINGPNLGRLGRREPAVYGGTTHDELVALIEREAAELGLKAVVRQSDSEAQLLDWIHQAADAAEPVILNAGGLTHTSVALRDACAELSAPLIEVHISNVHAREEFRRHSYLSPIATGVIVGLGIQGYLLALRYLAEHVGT
Sequence of type II dehydroquinase from Streptomyces coelicolor (P15474 whole entry): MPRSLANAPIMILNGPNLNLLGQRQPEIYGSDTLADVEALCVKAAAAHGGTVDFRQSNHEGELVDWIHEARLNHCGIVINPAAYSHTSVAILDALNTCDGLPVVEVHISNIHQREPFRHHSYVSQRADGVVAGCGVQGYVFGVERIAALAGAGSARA

In turn, `O=C(O)[C@@]1(O)C[C@@H](O)[C@H](O)C(OCc2cccs2)=C1Cc1cccs1` (as salt: sodium) (hydrate or solvate) [Ib-8] came in with a melting point of 178 to 181 °C.
Same read-out and setting: then `O=C(O)[C@]1(O)C=C(OCc2ccc3ccccc3c2)[C@@H](O)[C@H](O)C1` (as salt: sodium) (hydrate or solvate) [Ib-.10, Sodium (1R,4S,5R)-1,4-trihydroxy-3-(2-naphyl)methoxycyclohex-2-en-1-carboxylate], with 54 °C (dec.); and `C=CC[C@H]1C(=O)[C@@H](O)[C@H](O)C[C@]1(O)C(=O)O` (hydrate or solvate) [(2R)-Ia-1, (2R)-2-allyl-3-dehydroquinic acid], with 144 to 148 °C.
Still for that read-out and setting: then `C=CC[C@@H]1C(=O)[C@@H](O)[C@H](O)C[C@]1(O)C(=O)O` (hydrate or solvate) [(2S)-Ia-1, (2S)-2-allyl-3-dehydroquinic acid], with 127 to 130 °C; and `O=C([O-])[C@]1(O)C=C(OCc2ccc3sccc3c2)[C@@H](O)[C@H](O)C1.[Na+]` (hydrate or solvate) [Ib-7, Sodium (1R,4S,5R)-1,4,5-trihydroxy-3[(benzo[b]thiophen-5-yl)methoxy]cyclohex-2-en-1-carboxylate], with 157 to 160 °C (dec.).
`O=C([O-])[C@@]1(O)C[C@@H](O)[C@H](O)C(OCc2ccc3ccccc3c2)=C1Cc1ccc2ccccc2c1.[Na+]` (hydrate or solvate) [Ib-11, Sodium (1R,4S,5R)-1,4,5-trihydroxy-3-(naphth-2-yl)methoxy-2-(naphth-2-yl)methylcyclohex-2-en-1-carboxylate] registered a melting point of 184 to 187 °C.
`O=C([O-])[C@@]1(O)C[C@@H](O)[C@H](O)C(OCc2cccs2)=C1Cc1cc2ccccc2s1.[Na+]` (hydrate or solvate) [Ib-12, Sodium (1R,4S,5R)-1,4,5-trihydroxy-3-(thien-2-yl)methoxy-2-(benzo[b]thiophen-2-yl)methylcyclohex-2-en-1-carboxylate] displayed a melting point of 191 to 194 °C.
On the same count and under the same terms, to `O=C([O-])[C@@]1(O)C[C@@H](O)[C@H](O)C(OCc2ccc3sccc3c2)=C1Cc1cccs1.[Na+]` (hydrate or solvate) [Ib-13, Sodium (1R,4S,5R)-1,4,5-trihydroxy-3-(benzo[b]thiophen-5-yl)methoxy-2-(thien-2-yl)methylcyclohex-2-en-1-carboxylate] belongs 184 °C (dec.); to `Cc1cc2c(s1)[C@@H](O)[C@H](O)C[C@]2(O)C(=O)O` (hydrate or solvate) [Ic-2, (4R, 6R, 7S)-4,6,7-trihydroxy-2-methyl-4,5,6,7-tetrahydrobenzo[b]thiophen-4-carboxylic acid], 92 to 95 °C; to `Cc1ccc(CC2C(=O)C(O)C(O)CC2(O)C(=O)O)cc1` (single isomer, unassigned) (hydrate or solvate) [(2R)-Ia-4], 105 to 108 °C.
Still for that read-out and setting: then `O=C1C(O)C(O)CC(O)(C(=O)O)C1Cc1c(F)c(F)c(F)c(F)c1F` (single isomer, unassigned) (hydrate or solvate) [(2S)-Ia-6], with 123 to 125 °C.
`Cc1ccc(CC2C(=O)C(O)C(O)CC2(O)C(=O)O)cc1` (single isomer, unassigned) [(2S)-Ia-4]: the melting point was in the range of 134 to 138 °C. In series [1] (setting [6]), the Ki came to 150 nM. The Ki in series [2] (setting [7]) is 90 nM. For the same compound, in series [3] (setting [8]), the Ki came to 970 nM.
For `COc1ccc(CC2C(=O)C(O)C(O)CC2(O)C(=O)O)cc1` (single isomer, unassigned) [(2S)-Ia-5], the melting point lay in the range of 138 to 143 °C. Besides, the Ki in series [1] (setting [6]) was 340 nM. This compound displayed a Ki in series [2] (setting [7]) of 100 nM.
Turning to `O=C1C(O)C(O)CC(O)(C(=O)O)C1Cc1ccc2sccc2c1` (single isomer, unassigned) [(2S)-Ia-7], the melting point was 152 to 155 °C. The same compound came in with a Ki in series [1] (setting [6]) of 38 nM. This compound registered a Ki in series [2] (setting [7]) of 55 nM. Besides, in series [3] (setting [8]), the Ki stood at 900 nM.
`O=C1[C@@H](O)[C@H](O)C[C@](O)(C(=O)O)[C@H]1Cc1ccccc1` [(2R)-Ia-3, (2R)-2-benzyl-3-dehydroquinic acid] came in with a melting point of 146 to 148 °C. In series [1] (setting [6]), this compound yielded a Ki of 1550 nM. The Ki in series [2] (setting [9]) was 100 nM. Moreover, the Ki in series [3] (setting [8]) is 1400 nM.
`O=C1[C@@H](O)[C@H](O)C[C@](O)(C(=O)O)[C@@H]1Cc1ccccc1` [(2S)-Ia-3, (2S)-2-benzyl-3-dehydroquinic acid] registered a melting point of 131 to 134 °C. In series [1] (setting [6]), this compound had a Ki of 1050 nM. In series [2] (setting [9]), the Ki was 90 nM. In addition, the Ki in series [3] (setting [8]) is 1180 nM.
Turning to `O=C(O)[C@@]1(O)C[C@@H](O)[C@H](O)c2sccc21` [Ic-1, (4R, 6R, 7S)-4,6,7-trihydroxy-4,5,6,7-tetrahydrobenzo[b]thiophen-4-carboxylic acid], the melting point lay in the range of 128 to 131 °C. For the same compound, in series [1] (setting [10]), the Ki came out at 9700 nM. In series [2] (setting [7]), the Ki came out at 3000 nM. For the same compound, the Ki in series [3] (setting [11]) was 34000 nM.
For `O=C(O)[C@@]1(O)C[C@@H](O)[C@H](O)c2sc(/C=C/C3CC3)cc21` [Ic-6], the melting point was in the range of 103 to 105 °C. Besides, in series [1] (read-out: affinities in the case of S. coelicolor), the Ki was 0.3 nM. In series [2] (setting [7]), this compound came in with a Ki of 110 nM. In series [3] (setting [11]), this compound returned a Ki of 1080 nM.
For the compound `O=C(O)[C@@]1(O)C[C@@H](O)[C@H](O)c2sc(-c3ccccc3)cc21` [Ic-7, (4R,6R,7S)-4,6,7-trihyclroxy-2-phenyl-4,5,6,7-tetrahydroben-zo[b]thiophen-4-carboxylic acid], the melting point is 168 to 173 °C. In addition, in series [1] (setting [10]), the Ki amounted to 85 nM. For the same compound, in series [2] (setting [7]), the Ki was found to be 97 nM. The compound also had a Ki in series [3] (setting [11]) above 150000 nM.
Consider `CCc1cc2c(s1)[C@@H](O)[C@H](O)C[C@]2(O)C(=O)O` [Ic-9, (4R,6R,7S)-2-ethyl-4,6,7-trihydroxy-4,5,6,7-tetrahydrobenzo[b]thiophen-4-carboxylic acid], for which the melting point was 130 °C (dec.). In addition, the Ki in series [1] (setting [10]) amounted to 800 nM. Besides, the Ki in series [2] (setting [7]) worked out at 185 nM. This compound also gave a Ki in series [3] (setting [11]) of 3400 nM.
Consider `O=C(O)[C@@]1(O)C[C@@H](O)[C@H](O)c2sc(/C=C/c3ccccc3)cc21` [Ic-11], for which the melting point is 200 °C (dec.). The Ki in series [1] (setting [10]) was determined as 150 nM. Besides, the Ki in series [3] (setting [11]) stood at 16000 nM.
Consider `O=C1C[C@@](O)(C(=O)O)C[C@@H](O)[C@@H]1O` [natural substrate], for which the Km is 40 µM in series [4] and 444 µM in series [5].

A word on the melting point: it is the temperature, or range, at which the solid turns liquid. By Km is commonly meant the substrate concentration at which the rate is half of its maximum.
